What is called IC50 is the concentration at which inhibition is half-maximal.

Experiment [1] deals with KB. As to the kind of experiment: Cytotoxicity against human KB cells. The class given is functional, cell-based.
The test system of experiment [2] is SK-OV-3. As to the kind of experiment: Cytotoxicity against human SKOV3 cells. The class given is functional, cell-based.
For experiment [3], the system named is Candida albicans. As to the kind of experiment: Antifungal activity against Candida albicans. The class given is functional, organism-based.
Experiment [4] deals with Plasmodium falciparum. As to the kind of experiment: Antiplasmodial activity against Plasmodium falciparum D6. In kind it is functional, organism-based.
Experiment [5] relates to Cryptococcus neoformans. As to the kind of experiment: Antifungal activity against Cryptococcus neoformans. The class given is functional, organism-based.
In experiment [6] the test system is SK-MEL. As to the kind of experiment: Cytotoxicity against human SK-MEL cells. The class given is functional, cell-based.
Experiment [7] relates to Plasmodium falciparum. As to the kind of experiment: Antiplasmodial activity against chloroquine-resistant Plasmodium falciparum W2. The class given is functional, organism-based.

Each structure is given as a SMILES string. Converted amounts (≈) assume the structure as drawn.

As to `C=C1CC[C@@H](O)[C@]2(C)C[C@@H]3OC(=O)[C@H](C)[C@H]3[C@H](OC(C)=O)[C@@H]12`, the IC50 was determined as 1.1 µg/mL (≈ 3.57 µM) in experiment [1] and 8 µg/mL (≈ 25.9 µM) in experiment [2]. For the compound `CC(=O)O[C@H]1[C@H]2[C@H](C[C@@]3(C)[C@H](O)CC[C@@](C)(O)[C@H]13)OC(=O)[C@@H]2C`, the IC50 in experiment [3] turned out to be 10 µg/mL (≈ 30.6 µM); in experiment [4], 0.88 µg/mL (≈ 2.7 µM). In experiment [5], `C=C1CC[C@@H](O)[C@]2(C)C[C@@H]3OC(=O)[C@H](C)[C@H]3[C@H](O)[C@@H]12` showed an IC50 of 35 µg/mL (≈ 131 µM).

Turning to `CC1=CC[C@@H](O)[C@]2(C)C[C@@H]3OC(=O)[C@H](C)[C@H]3[C@H](O)[C@@H]12`, in experiment [6], the IC50 is 7.5 µg/mL (≈ 28.2 µM). Consider `CC(=O)O[C@H]1[C@H]2[C@H](C[C@]3(C)[C@@H]1[C@](C)(O)CC[C@H]3OC(C)=O)OC(=O)[C@@H]2C`, for which the IC50 in experiment [5] worked out at 25 µg/mL (≈ 67.9 µM); in experiment [7], 0.38 µg/mL (≈ 1.03 µM); in experiment [4] it was 0.32 µg/mL (≈ 0.869 µM). Take `C=C1C(=O)O[C@H]2C[C@@]3(C)O[C@@H]3CC/C(C)=C/[C@@H](OC(C)=O)[C@H]12` [PYRETHROSIN]: the IC50 came out at 4.2 µg/mL (≈ 13.7 µM) in experiment [6] and 30 µg/mL (≈ 97.9 µM) in experiment [3].
